Measurements from patent US7462630B2, “Diarylalkene derivatives and novel diarylalkane derivatives” (Ajinomoto Co., Inc., priority 2001, dated 2008).

Columns and labels:
[1] = test system: Sprague-Dawley (SD) rats, partial sciatic nerve ligation (Seltzer model); assay: Analgesic effects on a neuropathic pain model (partial sciatic nerve ligation model, mechanical allodynia, von Frey filaments); assay type: in vivo, rat; details: one hour after administration
Protocol: The effect of compound A in improving mechanical allodynia was evaluated using the partial sciatic nerve ligation model (Seltzer model, Pain, 43: 205-218, 1990) which belongs to the neuropathic pain models. For detecting the mechanical allodynia, the sole of the right paw of each rat was stimulated with von Frey filaments, and the threshold of the reaction for the mechanical stimulation (50% threshold) was determined according to a method of Chaplan et al. (J. Neurosci. Methods, 53: 55-63, 1994). In this step, the stimulation of the sole of the paw with each filament was repeated 8 times at a rate of about twice a second.
About a half thickness of the right sciatic nerve of each 8 week-old male Sprague-Dawley (SD) rat, whose reaction threshold was determined before the nerve injury, was ligated with a surgical suture to partially injure the nerve according to a method of Seltzer et al. (Pain, 43: 205-218, 1990). Six days after the nerve injury, the reaction threshold of the right hindpaw was determined and compared with that determined before the nerve injury. Individuals having a threshold far lower than that determined before the nerve injury [i.e. rats showing mechanical allodynia] were selected for evaluating allodynia improving effect. Seven and 9 days after the nerve injury, the reaction threshold of the rats selected for the purpose of the evaluation was determined before compound administration. […] One hour after the administration, the reaction threshold of each rat was determined.
The effect of compound B in improving mechanical allodynia was evaluated using the partial sciatic nerve ligation model (Seltzer model, Pain, 43: 205-218, 1990) which belongs to the neuropathic pain models. […] Six days after the nerve injury, the reaction threshold of the right hindpaw was determined and was compared with that determined before the nerve injury. Individuals having a threshold far lower than that determined before the nerve injury [i.e. rats showing mechanical allodynia] were selected for evaluating allodynia improving effect. […]

L-type calcium channel = target: T1, L-type calcium channel (Rattus norvegicus, UniProt P22002); assay: Antagonistic activity on L-type calcium channel (relaxation response against KCl-induced contraction of isolated rat thoracic aorta); details: read-out: Antagonistic action on L-type calcium channels pIC50 (converted)
T1 construct: relaxation response against the KCl-induced contraction of isolated rat thoracic aorta was employed; from tissue; host or cells: endothelium-denuded thoracic aorta rings of Wistar rat
T1 sequence (P22002 whole entry): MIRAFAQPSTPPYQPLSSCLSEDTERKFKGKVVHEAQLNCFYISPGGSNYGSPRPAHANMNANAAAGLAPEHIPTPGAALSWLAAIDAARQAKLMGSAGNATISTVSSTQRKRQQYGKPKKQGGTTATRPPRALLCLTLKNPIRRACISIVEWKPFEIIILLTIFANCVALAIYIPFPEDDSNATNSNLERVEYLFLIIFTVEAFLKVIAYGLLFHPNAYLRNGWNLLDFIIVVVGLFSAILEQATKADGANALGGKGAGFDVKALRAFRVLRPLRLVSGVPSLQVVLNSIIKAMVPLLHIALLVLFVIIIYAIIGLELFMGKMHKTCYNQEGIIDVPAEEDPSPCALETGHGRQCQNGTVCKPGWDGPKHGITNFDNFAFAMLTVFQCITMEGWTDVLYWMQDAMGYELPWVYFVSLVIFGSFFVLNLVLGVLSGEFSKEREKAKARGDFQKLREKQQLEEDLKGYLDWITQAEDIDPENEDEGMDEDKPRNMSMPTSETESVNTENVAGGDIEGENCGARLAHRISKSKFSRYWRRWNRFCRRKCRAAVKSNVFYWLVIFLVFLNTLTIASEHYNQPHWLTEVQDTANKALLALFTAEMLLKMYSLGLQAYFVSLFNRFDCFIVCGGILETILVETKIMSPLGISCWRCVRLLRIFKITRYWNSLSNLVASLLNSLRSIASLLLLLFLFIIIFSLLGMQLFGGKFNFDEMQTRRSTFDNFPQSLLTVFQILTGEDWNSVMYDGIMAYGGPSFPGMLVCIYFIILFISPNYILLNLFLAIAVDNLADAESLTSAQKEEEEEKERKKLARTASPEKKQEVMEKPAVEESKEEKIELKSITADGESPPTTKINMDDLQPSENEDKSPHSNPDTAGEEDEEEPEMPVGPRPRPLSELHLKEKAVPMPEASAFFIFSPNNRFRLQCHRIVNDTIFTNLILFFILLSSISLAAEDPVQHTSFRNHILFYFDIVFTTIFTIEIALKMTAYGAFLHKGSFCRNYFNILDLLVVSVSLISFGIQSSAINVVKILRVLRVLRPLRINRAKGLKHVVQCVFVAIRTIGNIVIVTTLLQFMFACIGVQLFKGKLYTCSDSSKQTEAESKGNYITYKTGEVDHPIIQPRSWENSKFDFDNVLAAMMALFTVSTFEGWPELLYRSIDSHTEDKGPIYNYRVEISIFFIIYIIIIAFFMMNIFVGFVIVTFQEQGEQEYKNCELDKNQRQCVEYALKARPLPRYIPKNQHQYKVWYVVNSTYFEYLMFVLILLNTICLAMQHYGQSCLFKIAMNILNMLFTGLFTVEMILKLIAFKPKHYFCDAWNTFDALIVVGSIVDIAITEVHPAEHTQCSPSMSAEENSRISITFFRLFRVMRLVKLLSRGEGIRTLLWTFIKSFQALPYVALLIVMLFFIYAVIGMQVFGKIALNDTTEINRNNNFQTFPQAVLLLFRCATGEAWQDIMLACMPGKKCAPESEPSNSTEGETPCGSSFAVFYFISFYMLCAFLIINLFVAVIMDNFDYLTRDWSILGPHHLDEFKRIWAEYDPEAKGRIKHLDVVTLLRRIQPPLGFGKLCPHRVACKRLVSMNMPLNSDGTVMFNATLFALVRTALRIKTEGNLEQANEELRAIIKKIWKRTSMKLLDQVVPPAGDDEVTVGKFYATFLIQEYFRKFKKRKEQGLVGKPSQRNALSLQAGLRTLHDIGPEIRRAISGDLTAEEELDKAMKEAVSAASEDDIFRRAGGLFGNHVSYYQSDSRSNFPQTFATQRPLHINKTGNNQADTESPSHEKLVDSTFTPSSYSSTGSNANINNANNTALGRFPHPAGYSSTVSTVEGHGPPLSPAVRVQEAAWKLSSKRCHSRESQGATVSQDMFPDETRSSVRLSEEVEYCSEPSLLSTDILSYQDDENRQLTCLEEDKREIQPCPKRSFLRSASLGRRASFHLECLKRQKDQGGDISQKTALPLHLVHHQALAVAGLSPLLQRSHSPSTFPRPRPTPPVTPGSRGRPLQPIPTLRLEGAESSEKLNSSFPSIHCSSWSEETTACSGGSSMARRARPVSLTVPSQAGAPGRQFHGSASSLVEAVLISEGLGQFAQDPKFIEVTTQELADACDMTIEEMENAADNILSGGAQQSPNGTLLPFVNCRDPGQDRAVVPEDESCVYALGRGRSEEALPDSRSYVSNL
T1 sequence (P54287 whole entry partner): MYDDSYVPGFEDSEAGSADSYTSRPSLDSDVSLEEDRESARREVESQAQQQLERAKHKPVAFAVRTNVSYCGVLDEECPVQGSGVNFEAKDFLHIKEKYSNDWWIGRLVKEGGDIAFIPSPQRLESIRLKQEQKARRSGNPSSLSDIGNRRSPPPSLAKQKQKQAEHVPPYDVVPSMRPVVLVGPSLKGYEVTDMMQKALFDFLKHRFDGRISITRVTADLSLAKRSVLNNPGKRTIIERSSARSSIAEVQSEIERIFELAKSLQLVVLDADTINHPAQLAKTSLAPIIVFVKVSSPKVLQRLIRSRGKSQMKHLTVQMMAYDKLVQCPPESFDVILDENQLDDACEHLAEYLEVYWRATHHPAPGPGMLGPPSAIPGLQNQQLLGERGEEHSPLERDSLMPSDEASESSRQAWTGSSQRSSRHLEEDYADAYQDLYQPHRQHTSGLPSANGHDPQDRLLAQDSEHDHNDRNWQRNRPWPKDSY
T1 sequence (P54290 25-944 partner limits assumed): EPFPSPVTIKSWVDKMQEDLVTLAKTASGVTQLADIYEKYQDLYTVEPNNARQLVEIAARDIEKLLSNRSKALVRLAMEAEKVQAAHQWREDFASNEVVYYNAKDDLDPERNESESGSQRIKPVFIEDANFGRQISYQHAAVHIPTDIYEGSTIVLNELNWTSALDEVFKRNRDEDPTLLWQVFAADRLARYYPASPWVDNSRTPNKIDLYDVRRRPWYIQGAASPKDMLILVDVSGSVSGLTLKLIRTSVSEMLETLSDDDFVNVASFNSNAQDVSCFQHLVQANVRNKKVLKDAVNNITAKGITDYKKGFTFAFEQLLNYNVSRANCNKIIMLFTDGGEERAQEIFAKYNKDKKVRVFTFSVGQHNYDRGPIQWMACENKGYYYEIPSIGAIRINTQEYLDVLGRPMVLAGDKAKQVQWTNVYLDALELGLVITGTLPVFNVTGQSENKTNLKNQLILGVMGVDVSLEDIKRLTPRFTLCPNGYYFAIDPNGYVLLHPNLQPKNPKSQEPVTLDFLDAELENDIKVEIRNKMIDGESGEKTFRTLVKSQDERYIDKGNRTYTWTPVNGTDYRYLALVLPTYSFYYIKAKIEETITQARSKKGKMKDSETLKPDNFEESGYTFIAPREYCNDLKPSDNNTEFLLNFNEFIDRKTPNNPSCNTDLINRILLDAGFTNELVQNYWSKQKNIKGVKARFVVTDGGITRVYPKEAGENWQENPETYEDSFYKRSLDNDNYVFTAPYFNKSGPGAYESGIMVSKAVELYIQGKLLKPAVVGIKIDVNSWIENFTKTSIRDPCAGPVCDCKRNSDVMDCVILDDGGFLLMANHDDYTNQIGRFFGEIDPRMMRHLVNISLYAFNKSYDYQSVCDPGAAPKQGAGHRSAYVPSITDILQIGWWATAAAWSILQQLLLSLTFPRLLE
T1 sequence (P54290 945-1091 partner limits assumed): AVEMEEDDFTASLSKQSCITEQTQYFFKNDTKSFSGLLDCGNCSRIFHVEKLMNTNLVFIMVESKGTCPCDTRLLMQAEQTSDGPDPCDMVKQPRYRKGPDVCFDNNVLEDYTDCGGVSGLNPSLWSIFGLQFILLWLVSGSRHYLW
Protocol: The antagonistic activity of the new diarylalkene derivatives and diarylalkane derivatives of the present invention to inhibit L-type calcium channel was determined by the following method in which the relaxation response against the KCl-induced contraction of isolated rat thoracic aorta was employed.
The slips of thoracic aorta isolated from a Wistar rat were used. The aorta was cut to obtain ring-shaped samples having a width of about 3 mm. The endothelial cells of the samples were mechanically removed. The samples were suspended in a strain gage in Tyrode's solution (158.3 mM of NaCl, 4.0 mM of KCl, 1.05 mM of MgCl2, 0.42 mM of NaH2PO4, 10 mM of NaHCO3, 2 mM of CaCl2 and 5 mM of glucose) in which a gaseous mixture of O2 (95%) and CO2 (5%) was introduced. A static tension of 2 g was applied thereto. The tension of the blood vessel was amplified with a transducer and a tension amplifier (EF-601G; Nihon Koden Corporation) and recorded with a multi-pen recorder (Rikadenki Kogyo Co., Ltd.). The experiments were conducted at 37° C.
After the tension had been stabilized, the nutrient solution in the sample tank was replaced with High K^+ Tyrode's solution (112.3 mM of NaCl, 50 mM of KCl, 1.05 mM of MgCl2, 0.42 mM of NaH2PO4, 10 mM of NaHCO3, 2 mM of CaCl2 and 5 mM of glucose) to conduct the contraction reaction. Thirty minutes after, the solution in the sample tank was replaced with the normal Tyrode's solution. The solution in the sample tank was again replaced with the High K^+ Tyrode's solution and the contraction reaction was observed. After attaining the maximum contraction reaction, the test compound was cumulatively added at intervals of 90 minutes to attain concentrations of 10^−9, 10^−8, 10^−7 and 10^−6 M. The inhibitory rate of the test compound against the maximum contraction response was employed as the index of the antagonistic activity on L-type calcium channels.
The value of pIC50 indicates the antagonistic activity of the test compound, i. e. the negative logarithm of the concentration of the test compound necessitated for the 50% inhibition.

IC50 (L-type calcium channel) [µM] | Compound | reaction threshold for mechanical stimulation (50% threshold) after the administration ([1]; 3 mg/kg oral in 0.5% tragacanth) | reaction threshold for mechanical stimulation (50% threshold) after the administration ([1]; 3 mg/kg oral in PEG) | reaction threshold for mechanical stimulation (50% threshold) after the administration ([1]; 100 mg/kg oral in PEG)
0.398 | CC(C)(C)C(=O)NCCC(=O)N1CCC(=C2c3ccccc3C=Cc3ccccc32)CC1 [Example 11, N-{3-[4-(5H-dibenzo[a,d][7]annulen-5-ylidene)-1-piperidinyl]-3-oxopropyl}-2,2-dimethylpropanamide] | increased |  | 
1.26 | CC(C)(C)C(=O)N[C@H](CO)CCC(=O)N1CCC(=C2c3ccccc3C=Cc3ccccc32)CC1 [Example 71, (S)-N-[4-[4-(5H-dibenzo[a,d][7]annulen-5-ylidene)-1-piperidinyl]-1-(hydroxylmethyl)-4-oxobutyl]-2.2-dimethylpropanamide] |  | hardly changed | clearly increased
